For assay [1], the system named is MCF7. As to the kind of experiment: Anticancer activity against human MCF7 cells assessed as cell growth inhibition incubated for 48 hrs by MTT assay. The assay is classed as functional, cell-based. The note with it: MCF7, 48 h. (In general: Tetrazolium assays rely on reduction of a dye to a coloured formazan, in cell work by metabolically active cells.)
The next assay relates to Pichia kudriavzevii. As to the kind of experiment: Antifungal activity against Candida krusei assessed as fungal growth inhibition incubated for 24 to 48 hrs by microdilution method. The assay is classed as functional. The note with it: time 24-48 hrs. A general note: Dilution methods test growth across graded concentrations, often in twofold steps.
Assay [2] has as its system MCF7. As to the kind of experiment: Anticancer activity against human MCF7 cells assessed as cell growth inhibition incubated for 24 hrs by ELISA based CCK8 assay. The assay is classed as functional. Particulars: MCF7, 24 h. A general note: ELISA stands for enzyme-linked immunosorbent assay.
In another assay the test system is HepG2. Description: Anticancer activity against human HepG2 cells assessed as cell growth inhibition incubated for 48 hrs. Type of assay: functional, cell-based. Particulars: HepG2, 48 h.
Another assay concerns HeLa. As to the kind of experiment: Anticancer activity against human HeLa cells assessed as cell growth inhibition incubated for 48 hrs. Type of assay: functional, cell-based.
In assay [3] the test system is MCF7. Description: Anticancer activity against human MCF7 cells assessed as cell growth inhibition incubated for 72 hrs by MTT assay. Type of assay: functional, cell-based. Particulars: MCF7, 72 h.
The subject of another assay is MDA-MB-231. As to the kind of experiment: Anticancer activity against human MDA-MB-231 cells assessed as cell growth inhibition incubated for 72 hrs by MTT assay. Type of assay: functional, cell-based. Particulars: MDA-MB-231, 72 h.
For the next assay, the system named is A-375. As to the kind of experiment: Anticancer activity against human A-375 cells assessed as cell growth inhibition incubated for 72 hrs by MTT assay. Type of assay: functional, cell-based. Particulars: A-375, 72 h.
The test system of the next assay is Plasmodium falciparum. As to the kind of experiment: […] inhibition incubated for 72 hrs by light microscopic analysis. The assay is classed as functional, organism-based. The note with it: K-1, 72 h.
The next assay relates to HL-60. Description: Anticancer activity against human HL-60 cells assessed as cell growth inhibition incubated for 72 hrs by MTT assay. The assay is classed as functional, cell-based. Particulars: HL-60, 72 h.
Another assay deals with CNE-2. As to the kind of experiment: Anticancer activity against human CNE-2 cells assessed as cell growth inhibition incubated for 72 hrs by MTT assay. The assay is classed as functional, cell-based. Particulars: CNE-2, 72 h.
The subject of the next assay is SW-620. As to the kind of experiment: Anticancer activity against human SW620 cells assessed as cell growth inhibition incubated for 72 hrs by MTT assay. Type of assay: functional, cell-based. The note with it: SW-620, 72 h.
The nature of assay [4]: Anticancer activity against human WM35 cells assessed as cell growth inhibition incubated for 72 hrs by MTS assay. The assay is classed as functional, cell-based. The note with it: WM35, 72 h, pooled result: one value given for 4 cell lines, strains, targets or settings.
The subject of another assay is UACC-903. As to the kind of experiment: Antitumor activity against human UACC-903 cells xenografted with mouse assessed as reduction in tumor volume at 0.127 uM, ip administered alternate days for 4 week relative to control. Type of assay: functional. Particulars: time 4 weeks. Also noted: scale not given: the % may be the effect or the level left.
Assay [5] can be described thus: Antitumor activity against human 1205Lu cells xenografted with mouse assessed as reduction in tumor volume at 0.127 uM, ip administered alternate days for 4 week relative to control. The assay is classed as functional. Also noted: scale not given: the % may be the effect or the level left. Particulars: time 4 weeks.
For a further assay, the system named is T47D. Description: Anticancer activity against human T47D cells assessed as cell growth inhibition. The assay is classed as functional, cell-based.
The test system of assay [6] is MCF7. Description: Anticancer activity against human MCF7 cells assessed as cell growth inhibition. Type of assay: functional, cell-based.
The target of the next assay is Carbonic anhydrase 2 (Homo sapiens, UniProt P00918). As to the kind of experiment: Inhibition of human carbonic anhydrase 2 assessed as inhibition constant.
The target of another assay is Carbonic anhydrase 1 (Homo sapiens, UniProt P00915). As to the kind of experiment: Inhibition of human carbonic anhydrase 1 assessed as inhibition constant.
The next assay deals with PC-3M. As to the kind of experiment: Anticancer activity against human PC-3M cells assessed as cell growth inhibition incubated for 24 hrs by MTT assay. Type of assay: functional, cell-based.
A short description of assay [7]: Anticancer activity against human PMNL assessed as cell growth inhibition. Type of assay: functional, cell-based.
Another assay deals with Human alphaherpesvirus 1. Description: Antiviral activity against Herpes simplex virus 1infected in A549 cells assessed as viral growth inhibition incubated for 1 hrs. Type of assay: functional.
Assay [8] has as its system Encephalomyocarditis virus. As to the kind of experiment: Antiviral activity against Encephalomyocarditis virus infected in A549 cells assessed as viral growth inhibition incubated for 1 hrs. Type of assay: functional, organism-based. The note with it: Cardiovirus A, A549, 1 h.
The next assay has as its system Caco-2. Description: Anticancer activity against human Caco-2 cells assessed as cell growth inhibition incubated for 72 hrs by MTT assay. Type of assay: functional, cell-based. The note with it: Caco-2, 72 h.
The test system of a further assay is PC-3. Description: Anticancer activity against human PC-3 cells assessed as cell growth inhibition incubated for 72 hrs by MTT assay. The assay is classed as functional, cell-based. Particulars: PC-3, 72 h.
The next assay has as its system BGC-823. Description: Anticancer activity against human BGC-823 cells assessed as cell growth inhibition incubated for 72 hrs by MTT assay. The assay is classed as functional, cell-based. Particulars: BGC-823, 72 h.
The nature of assay [9]: Anticancer activity against human PMNL assessed as cell growth inhibition incubated for 5 mins by luminescence reader analysis. Type of assay: functional, cell-based.
The test system of assay [10] is Candida albicans. As to the kind of experiment: Antifungal activity against Candida albicans ATC90028 assessed as zone of inhibition. Type of assay: functional.
In assay [11] the test system is Candida albicans. Description: Antifungal activity against Candida albicans ATC90028 assessed as […] growth inhibition. Type of assay: functional.
A short description of assay [12]: Anticancer activity against human Ela-myc- cells assessed as cell growth inhibition by crystal violet staining based assay. The note with it: Ela-myc-1 cell. Type of assay: functional.
In the next assay the test system is PANC-1. As to the kind of experiment: Anticancer activity against human PANC-1 cells assessed as cell growth inhibition by crystal violet staining based assay. The assay is classed as functional.
Another assay deals with Hs68. Description: Anticancer activity against human Hs68 cells assessed as cell growth inhibition incubated for 72 hrs by MTT assay. The assay is classed as functional, cell-based. The note with it: Hs68, 72 h.
The test system of the next assay is DU-145. Description: Anticancer activity against human DU-145 cells assessed as cell growth inhibition measured after 6 days by SRB assay. The assay is classed as functional, cell-based. The note with it: DU-145, 144 h.
Another assay concerns UACC-375. Description: Anticancer activity against human UACC-375 cells assessed as cell growth inhibition measured after 6 days by SRB assay. Type of assay: functional, cell-based.
In another assay the test system is A549. Description: Anticancer activity against human A549 cells assessed as cell growth inhibition measured after 6 days by SRB assay. Type of assay: functional, cell-based. The note with it: A549, 144 h.
For another assay, the system named is MCF7S. Description: Anticancer activity against human MCF7S cells assessed as cell growth inhibition measured after 6 days by SRB assay. Type of assay: functional. Particulars: time 6 day.
Another assay relates to HT-29. As to the kind of experiment: Anticancer activity against human HT-29 cells assessed as cell growth inhibition measured after 6 days by SRB assay. The assay is classed as functional, cell-based. Particulars: HT-29, 144 h.

Values after ≈ are worked out from the molar mass of the structure shown.

Sequence of Carbonic anhydrase 1 (P00915 whole entry): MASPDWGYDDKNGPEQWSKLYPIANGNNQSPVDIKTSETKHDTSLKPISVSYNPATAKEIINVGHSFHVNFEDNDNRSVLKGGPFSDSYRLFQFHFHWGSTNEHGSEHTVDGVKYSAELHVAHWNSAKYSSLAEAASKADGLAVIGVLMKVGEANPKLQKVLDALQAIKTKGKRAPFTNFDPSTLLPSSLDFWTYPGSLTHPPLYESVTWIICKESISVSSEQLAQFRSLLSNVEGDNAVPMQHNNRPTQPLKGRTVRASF

As to `CCNCc1ccccc1[Se][Se]c1ccccc1CNCC`, in the assay with MCF7 [1], the IC50 (as a rule, the concentration needed to halve the response being measured) is 15 µM.

Consider `Clc1ccc(-c2c[se]c(NN=C3CCSCC3)n2)cc1`, for which the MIC in the assay on Pichia kudriavzevii was determined as 3.91 µg/mL (≈ 10.5 µM).

For `Clc1ccc([Se][Se]c2ccc(Cl)nn2)nn1`, in the assay on MCF7 [2], the IC50 stood at 10.3 µM.

In the case of `CN(C)c1ccc(/C=C/c2c3ccccc3c(/C=C/c3ccc(OCCCCCC[Se][Se]CCCCCCOc4ccc(/C=C/c5c6ccccc6c(/C=C/c6ccc(N(C)C)cc6)c6ccccc56)cc4)cc3)c3ccccc23)cc1`, the IC50 in the assay on HepG2 stood at 4.45 µM; in the assay on HeLa, 3.96 µM.

`c1ccc2[nH]c(-c3ccc4n[se]nc4c3)nc2c1`: the IC50 was found to be 15.4 µM in the assay with MCF7 [3] and 12.3 µM in the assay with MDA-MB-231.

For `N[C@@H](C[Se][Se]C[C@H](N)C(=O)O)C(=O)O`, the half-maximal inhibitory concentration (IC50) turned out to be 3.6 µM in the assay on A-375; 65 µM in the assay with Plasmodium falciparum; 34.5 µM in the assay on HL-60; 5.6 µM in the assay on CNE-2; 7.3 µM in the assay on SW-620.

In the case of `NC(CCC(=O)NC(CS[Se]Cc1cc(-c2ccccc2)n(-c2ccc(S(N)(=O)=O)cc2)n1)C(=O)NCC(=O)O)C(=O)O` (stereo not drawn), the IC50 in assay [4] came out at 7.66 µM. Also, the Activity (in the assay with UACC-903; in assay [5]) was 70% throughout.

For the molecule `Ic1ccc(-c2c[se]c(NN=C3CCSCC3)n2)cc1`, in the assay on Pichia kudriavzevii, the MIC amounted to 0.98 µg/mL (≈ 2.12 µM).

For the molecule `O=C(NC(=[Se])Nc1ccccc1)c1cccs1`, the IC50 in the assay with T47D was determined as 6.1 µM; in the assay on MCF7 [6] it was 4.2 µM.

Consider `[Se]=P(c1ccccn1)(c1ccccn1)c1ccccn1`, for which the values for the inhibition constant (Ki) at Carbonic anhydrase 2 and at Carbonic anhydrase 1 were 0.0537 µM and 0.0563 µM, respectively.

As to `Cc1ccc2nc(-c3ccc4n[se]nc4c3)[nH]c2c1`, the figures for the concentration for half-maximal inhibition (IC50) in the assay with MCF7 [3] and in the assay with MDA-MB-231 were 4.1 µM and 1 µM, respectively.

Turning to `Brc1ccc2nc(-c3ccc4n[se]nc4c3)[nH]c2c1`, the concentration for half-maximal inhibition (IC50) in the assay on MCF7 [3] worked out at 15.5 µM; with MDA-MB-231, 1.3 µM.

In the case of `N#C[Se]Cc1cc(-c2ccccc2)n(-c2ccc(S(N)(=O)=O)cc2)n1`, the IC50 in the assay with PC-3M was determined as 5 µM.

In the case of `CN(C)C(N)=[Se]`, the IC50 in assay [7] worked out at 6.8 µM.

For `CCOC(=O)n1[se]c2ccccc2c1=O`, the MIC with Human alphaherpesvirus 1 was 10 µg/mL (≈ 37 µM). Besides, in assay [8], the IC50 amounted to 10 µg/mL (≈ 37 µM).

Consider `O=C(NCCC[Se][Se]CCCNC(=O)c1ccccc1Nc1cccc(C(F)(F)F)c1)c1ccccc1Nc1cccc(C(F)(F)F)c1`, for which the IC50 in the assay on Caco-2 amounted to 3.9 µM; in the assay on MCF7 [3], 6.8 µM; with PC-3, 6.6 µM; in the assay with BGC-823, 8.3 µM.

Take `CCN(CC)C(=[Se])c1ccc(Cl)cc1`: the 50% inhibitory concentration (IC50) in [9] is 20.3 µM.

As to `Clc1ccc2nc(-c3ccc4n[se]nc4c3)[nH]c2c1`, the 50% inhibitory concentration (IC50) was found to be 26.3 µM with MCF7 [3] and 2.1 µM in the assay with MDA-MB-231.

`Cc1ccc(-c2cc(C(F)(F)F)nn2-c2ccc(S(N)(=O)=O)cc2)cc1` [CELECOXIB]: the 50% inhibitory concentration (IC50) in assay [4] stood at 55.6 µM.

On to `Clc1ccccc1C(c1ccccc1)(c1ccccc1)n1ccnc1` [CLOTRIMAZOLE], for which the “inhibition zone (IZ)” value with Candida albicans [10] came out at 28 mm. Moreover, the MIC in the assay with Candida albicans [11] was 6.25 µg/mL (≈ 18.1 µM).

In the case of `C[Se](=O)O` [METHYLSELENINIC ACID], the IC50 in [12] was found to be 3.2 µM; in the assay on MCF7 [6], 2 µM; in the assay with Plasmodium falciparum it was 10 µM; with PANC-1 it was 2.6 µM.

For `C[Se]C[C@H](N)C(=O)O` [METHYLSELENOCYSTEINE], the IC50 with A-375 worked out at 54 µM; with MCF7 [3], 193 µM; with SW-620, 633 µM; in the assay with Hs68 it was 50 µM.

As for `C[Se]CC[C@H](N)C(=O)O` [SELENOMETHIONINE], the concentration for half-maximal inhibition (IC50) was determined as 40 µM in the assay with DU-145; 50 µM in the assay on UACC-375 (Homo sapiens, UACC-375, 144 h); 65 µM with A549; 45 µM in the assay with Plasmodium falciparum; 130 µM in the assay on HT-29. Also, the IC5 was 50 µM in the assay on UACC-375 (time 6 day) and 45 µM with MCF7S.

(Values after ChEMBL document CHEMBL5236550, “Small molecule selenium-containing compounds: Recent development and therapeutic applications” (Eur J Med Chem, 2021).)
